Laboratory results reported in US20060281806A1, “Treatment and inhibition of disease conditions using flexible heteroarotinoids” (priority 2005, published 2006).
Entries after “also recorded” stand apart in the source; their conditions may differ.

Tests used:
[1] = system: OVCAR-3 xenograft tumors; experiment: OVCAR-3 xenograft tumor animal model, tumor growth; format: in vivo, mouse; settings: 10 mg/kg/day by gavage, 5 days/week, 4 weeks; t-test on day 29
Protocol: Groups of 5 mice bearing OVCAR-3 xenografted tumors were gavaged daily with the indicated drugs in sesame oil (▪ closed square) or with sesame oil alone (∘ open circle). Tumor volumes were measured in 3 dimensions with calipers weekly. Each data point represents the average and standard error of the tumor volumes on the indicated treatment day relative to the tumor volume on day zero. Nu/nu mice were injected subcutaneously with one million OVCAR-3 cells and arbitrarily divided into five groups of six mice each. After three weeks of tumor growth, the animals were gavaged with sesame oil, 10 mg/kg/day 4-HPR, or the indicated Het five times per week for four weeks and the tumors were measured once per week. The tumor sizes were averaged and divided by the average size for each group on the day that treatment was initiated (day 0).
The OVCAR-3 cultures were maintained in RPMI media supplemented with 10% fetal bovine serum. All animal experimentation described in this manuscript was conducted in accord with accepted standards of humane animal care. Twenty-five female NU/NU CD-1 female mice (Charles Rivers Laboratories) were housed in a laminar flow room under sterile conditions at 83-85° F. The mice were quarantined for one week prior to the beginning of the study and were allowed access to autoclaved food (Purina 5001 mouse/rat sterilizable diet, St. Louis, Mo.) and water ad libitum. OVCAR-3 cells in log phase growth were harvested by trypsinization, resuspended in RPMI culture medium, and centrifuged at 3,000 rpm for 10 min. The pellets were resuspended in RPMI culture medium at a concentration of 7×10^6 cells/ml before implantation into mice. Animals were injected with 3.5×10^6 cells into the right scapular region with a 24-gauge needle/1 cc tuberculin syringe. Twenty-four hours after tumor implantation, animals were randomized into 5 groups of 5 animals each.
The Hets SHet50, SHetA2 and SHetA4 were synthesized and their receptor specificity determined as previously described (17,19). The 4-HPR compound was a gift from R.W. Johnson Pharmaceutical Research Institute, Raritan, N.J. All retinoids were dissolved in super refined sesame oil (Croda, Inc., Parsippany, N.J.) and stored at −80° C. Since the retinoids are light sensitive, all manipulations involving retinoids were performed under subdued lighting. […] Tumors were measured with calipers weekly, and tumor volumes were calculated using the formula: volume=length×width×height. Tumor growth was determined by the dividing the volume of the tumor at each weekly measurement by the volume on the first day of treatment. Animal weights and clinical signs of overall health status and cutaneous toxicities were recorded weekly.

[2] = system: HT-3 cervical carcinoma cell line; experiment: In vitro cytotoxicity (SRB growth inhibition) assay, HT-3; format: cell-based, human; design: dose or concentration left out as unconfirmed; settings: 72 h
Protocol: (§1) The SHetA2, SHetA3, SHetA4, SHet50 and 9-cis-RA compounds were evaluated in 4 cervical carcinoma cell lines. The SiHa, CC-1 and C33a human cervical cell lines were maintained in Minimal Essential Media (MEM) containing Earle's salts and L-glutamine supplemented with nonessential amino acids, 1% sodium pyruvate, 10% fetal bovine serum (FBS) and antibiotic/antimycotic. The HT-3 cervical carcinoma cell line was cultured in McCoy's 5a medium supplemented with 10% FBS and antibiotic/antimycotic. Cells were inoculated into 96 well microtiter plates at densities of 1000 cells/well and incubated for 24 h prior to addition of drugs. Drugs were dissolved in dimethyl sulfoxide (DMSO) and diluted in complete medium, prior to addition to triplicate culture wells to achieve final concentrations of […]. Following drug addition, the plates were incubated for 72 h. The assay was terminated by the addition of cold TCA and the cells were stained with 0.4% sulforhodamine B (SRB) in 1% acetic acid. Bound stain was subsequently solubilized with 10 mM trizma base, and the absorbance was read on an automated plate reader at a wavelength of 560 nm. Growth inhibition was determined by dividing the average Optical Density (OD) of the triplicated treated cultures by the average OD of the triplicate control cultures treated with DMSO solvent only. This ratio was converted into a percentage by multiplying by 100. The potency (concentration required to induce half of the maximal activity—GI50) were derived from dose-response graphs generated with results from 3 to 5 individual experiments using GraphPad Software.

[3] = system: C33a human cervical cell line; experiment: In vitro cytotoxicity (SRB growth inhibition) assay, C33a; format: cell-based; design: dose or concentration left out as unconfirmed; settings: 72 h
Protocol: as §1

[4] = Alanine aminotransferase (ALT) activity in plasma of mice; format: in vivo, mouse; settings: end of treatment, 10 mg/kg/day by gavage
Protocol: At the end of the treatment period, blood was drawn from each animal. Plasma was separated by centrifugation and stored at −70° C. The activity of ALT was determined in aliquots of plasma by standard spectrophotometric enzymatic techniques which are based on the reduction of pyruvate by lactate dehydrogenase (28). The method measures NADH disappearance with time of incubation at 37° C. The activities are expressed as mm/L/min. Two different amounts of plasma were used in each assay to assure measurement of the maximum rate.

[5] = system: CC-1 human cervical cell line; experiment: In vitro cytotoxicity (SRB growth inhibition) assay, CC-1; format: cell-based; design: dose or concentration left out as unconfirmed; settings: 72 h
Protocol: as §1

[6] = system: ovarian carcinoma organotypic cultures; experiment: Organotypic culture model of ovarian tumors; format: cell-based, human; settings: 1 μM retinoid in media; 3, 7 or 14 days
Protocol: FIG. 17. Retinoid effects on ovarian carcinoma organotypic cultures. Organotypic cultures of OVCAR-3 (A, B, E, F, I and J), Caov-3 (C and G), SK-OV-3 (D and H), and O2 (K and L) were grown in the absence (−, top row and K) or presence (+, middle row and I, J and L) of retinoid HetA4 at a concentration of 1 μM in the media. All sections were stained with H&E except for I, which was stained with PAS to detect glycoproteins and glandular differentiantion, and J, which was stained with the TUNEL assay to detect apoptosis. All magnifications are 40×.
To test our hypotheses, we evaluated the effects of clinically achievable concentrations of 4-HPR and Flex-Hets on growth, differentiation and apoptosis in ovarian tissue. A series of compounds with a variety of receptor activation profiles were evaluated. In order to evaluate therapeutic effects, we developed an organotypic culture model of ovarian tumors by growing established cell lines and primary cultures inside collagen gels. Monolayer cultures of cells are not accurate representations of in vivo tissue because they lack the types of interactions that cells have with other cells and with the extracellular matrix in vivo. These interactions are known to influence gene expression and thus the constitution and behavior of cells. In our organotypic model, the growth of tumor cells inside the collagen allows a representation of tumors that have invaded stromal tissue. In the presence of fibroblasts, established cell lines and primary cultures of ovarian cancer formed colonies inside the collagen, while normal or benign ovarian epithelial cells remained as single cells inside the collagen. Human ovarian cancer cell lines (OVCAR-3, Caov-3, SK-OV-3, A2780, UCI 101) and primary human cultures (borderline ovarian tumor (O1), serous papillary tumor (O2), benign ovarian cyst (O3)) were cultured inside and on top of a collagen gel seeded with 3T3 fibroblasts for one week. After further incubation in the presence or absence of 1 μM retinoid (media concentration) for 3, 7 or 14 days, cultures were fixed and sectioned for immunohistochemical analysis.

[7] = system: SiHa human cervical cell line; experiment: In vitro cytotoxicity (SRB growth inhibition) assay, SiHa; format: cell-based; design: dose or concentration left out as unconfirmed; settings: 72 h
Protocol: as §1

[8] = system: dorsal skin of female Skh hairless mice; experiment: Topical irritancy; format: in vivo; settings: topical on dorsal skin for 4 days; 2-log concentration dose range
Protocol: Female Skh hairless mice, 6-8 weeks old, were treated topically on the dorsal skin for 4 days over a 2-log concentration dose range with various compounds. Retinoic acid receptor-Hets were evaluated in A, while retinoic acid receptor-independent Flex-Hets were evaluated in B. Daily flaking and abrasion scores were combined to calculate a single cutaneous toxicity score for each mouse. Each treatment group consisted of 4 mice, and group averages were used to plot cutaneous toxicity against doses of the compounds.
Topical irritancy was evaluated according to published procedures (29). Briefly, female Skh hairless mice, 6-8 weeks old, were treated topically on the dorsal skin for 4 days over a 2-log concentration dose range with various compounds. Daily flaking and abrasion scores were combined to calculate a single cutaneous toxicity score for each mouse. Each treatment group consists of 4 mice, and group averages are used to plot cutaneous toxicity against dose of the retinoid compound.

[9] = system: Raldh2 −/− embryos; experiment: Rescue of Raldh2 −/− embryos and teratogenesis; format: in vivo, mouse; settings: for No. of −/− rescued / No. of −/− unrescued / Teratogenesis (no. of embryos): E10.25 embryos
Protocol: Dosages varied from 0.025 to 25 mg/kg.

[10] = dose 1.0 mg/kg oral to pregnant mice
[11] = dose 2.5 mg/kg oral to pregnant mice
[12] = dose 10 mg/kg oral to pregnant mice
[13] = dose 0.025 mg/kg oral to pregnant mice
[14] = dose 0.25 mg/kg oral to pregnant mice
[15] = dose 0.5 mg/kg oral to pregnant mice
[16] = dose 25 mg/kg oral to pregnant mice

COC(=O)c1ccc(C(=O)Nc2ccc3c(c2)C(C)(C)CC(C)(C)S3)cc1 [SHet50, reference compound]
growth of xenograft tumors versus sesame oil control [1]: significantly inhibited the growth; also recorded: significantly less
Efficacy: percent growth inhibition relative to the untreated control [2]: 47%
Efficacy: percent growth inhibition relative to the untreated control [3]: 67%
ALT Activity [4]: 65.5 ± 46.3 mm/liter/min
Efficacy: percent growth inhibition relative to the untreated control [5]: 15%
induction of apoptosis (TUNEL) in organotypic cultures [6]: Apoptosis was induced
Efficacy: percent growth inhibition relative to the untreated control [7]: 35%

CC(C=CC=C(C)c1ccc2c(c1)C(C)(C)CS2)=CC(=O)O [SHet65]
topical irritancy (cutaneous toxicity score) [8]: induced topical irritancy scores in a dose-responsive manner

CC1=C(/C=C/C(C)=C/C=C/C(C)=C/C(=O)O)C(C)(C)CCC1 [All-trans-RA]
No. of −/− rescued [9, 10]: 0
No. of −/− unrescued [9, 10]: 7
Teratogenesis (no. of embryos) [9, 10]: 0
No. of −/− rescued [9, 11]: 13
No. of −/− unrescued [9, 11]: 1
Teratogenesis (no. of embryos) [9, 11]: 0

CC1=C(/C=C/C(C)=C\C=C\C(C)=C\C(=O)O)C(C)(C)CCC1 [9-cis-RA, 9-cis-retinoic acid]
rescue of Raldh2 −/− embryos (phenotype) ([9]; 2.5 mg/kg to pregnant mothers): partial rescue
No. of −/− unrescued [9, 11]: 8
Teratogenesis (no. of embryos) [9, 11]: 0
No. of −/− rescued [9, 12]: 6
No. of −/− unrescued [9, 12]: 1
Teratogenesis (no. of embryos) [9, 12]: 0
Efficacy: percent growth inhibition relative to the untreated control [2]: 47%
Efficacy: percent growth inhibition relative to the untreated control [3]: 45%
Efficacy: percent growth inhibition relative to the untreated control [5]: 28%
induction of apoptosis (TUNEL) in organotypic cultures [6]: Apoptosis was induced
Efficacy: percent growth inhibition relative to the untreated control [7]: 24%

CCOC(=O)c1ccc(OC(=O)c2ccc3c(c2)C(C)(C)CCN3C(C)C)cc1 [NHet17]
topical irritancy (cutaneous toxicity score) [8]: induced topical irritancy scores in a dose-responsive manner

CC(Cc1ccc(C(=O)O)cc1)c1ccc2c(c1)C(C)(C)CS2 (stereo not drawn) [SHet100]
rescue of Raldh2 −/− embryos (phenotype) ([9]; 0.25 mg/kg to pregnant mothers): partial rescue
rescue of Raldh2 −/− embryos (phenotype) ([9]; 0.5 mg/kg to pregnant mothers): typical rescue phenotype
teratogenesis in litter ([9]; 2.5 mg/kg to pregnant mothers): teratogenic for all embryos in a litter
No. of −/− rescued [9, 13]: 0
No. of −/− unrescued [9, 13]: 2
Teratogenesis (no. of embryos) [9, 13]: 0
No. of −/− unrescued [9, 14]: 0
Teratogenesis (no. of embryos) [9, 14]: 0
No. of −/− rescued [9, 15]: 6
No. of −/− unrescued [9, 15]: 1
Teratogenesis (no. of embryos) [9, 15]: 0
Teratogenesis (no. of embryos) [9, 11]: 11

CC1(C)CCOc2ccc(C(=O)Oc3ccc(C=NNC(N)=S)cc3)cc21 [OHet72]
rescue of Raldh2 −/− embryos (phenotype) ([9]; 2.5 mg/kg to pregnant mothers): no rescue
rescue of Raldh2 −/− embryos (phenotype) ([9]; 10 or 25 mg/kg to pregnant mothers): no rescue
teratogenesis in litters ([9]; any dosage (2.5, 10, 25 mg/kg)): no teratogenesis was observed
No. of −/− rescued [9, 11]: 0
No. of −/− unrescued [9, 11]: 4
Teratogenesis (no. of embryos) [9, 11]: 0
No. of −/− rescued [9, 12]: 0
No. of −/− unrescued [9, 12]: 3
Teratogenesis (no. of embryos) [9, 12]: 0
No. of −/− rescued [9, 16]: 0
No. of −/− unrescued [9, 16]: 5
Teratogenesis (no. of embryos) [9, 16]: 0
topical irritancy (cutaneous toxicity score) [8]: did not induce topical irritancy
